The values below come from US10118901B2 (priority 2013, dated 2018).

Holding throughout (assay type): cell-based, human
The test system of one experiment is MOLT-4. The experiment is described as follows: NCI-60 screen at 10 μM: MOLT-4. The following applies: Leukemia MOLT-4; 10 μM single dose; 48 hrs. As for the experimental part:
(§1) NL-101 and CY-102 was sent to U.S. National Cancer Institute (NCI) for NCI 60-cell line screening using a single compound dose (10 μM).
(§2) The human tumor cell lines of the cancer screening panel were grown in RPMI 1640 medium containing 5% fetal bovine serum (5% FBS) and 2 mM L-glutamine. For a typical screening experiment, cells were inoculated into 96-well microtiter plates in 100 μL, at plating densities ranging from 5,000 to 40,000 cells/well depending on the doubling time of individual cell lines. After cell inoculation, the microtiter plates were incubated at 37° C., 5% CO2, 95% air, and 100% relative humidity for 24 h prior to addition of experimental compounds. […]
(§3) Following drug addition, the plates were incubated for an additional 48 hrs at 37° C., 5% CO2, 95% air, and 100% relative humidity. […] Bound stain was subsequently solubilized with 10 mM trizma base, and the absorbance was read on an automated plate reader at a wavelength of 515 nm. […]
(§4) Using the seven absorbance measurements [time zero, (Tz), control growth, (C), and test growth in the presence of drug at the 10 μM concentration levels (Ti)], percentage growth was calculated at each of the drug concentrations levels. Percentage growth inhibition was calculated as: [(Ti−Tz)/(C−Tz)]×100 for which Ti>/=Tz or [(Ti−Tz)/Tz]×100 for which Ti<Tz.

A further experiment concerns RPMI-8226. In words: NCI-60 screen at 10 μM: RPMI-8226. The note with it: Leukemia RPMI-8226; 10 μM single dose; 48 hrs. The procedure:
as §1, §2, §3, §4

For a further experiment, the system named is SR. The experiment is described as follows: NCI-60 screen at 10 μM: SR. The note with it: Leukemia SR; 10 μM single dose; 48 hrs. As for the experimental part: as §1, §2, §3, §4
A further experiment relates to HOP-92. In words: NCI-60 screen at 10 μM: HOP-92. The note with it: NSCLC HOP-92; 10 μM single dose; 48 hrs. As for the experimental part:
as §1, §2, §3, §4

Another experiment concerns NCI-H23. In words: NCI-60 screen at 10 μM: NCI-H23. The note with it: NSCLC NCI-H23; 10 μM single dose; 48 hrs. As for the experimental part:
as §1, §2, §3, §4

In a further experiment the test system is NCI-H460. In words: NCI-60 screen at 10 μM: NCI-H460. The note with it: NSCLC NCI-H460; 10 μM single dose; 48 hrs. As for the experimental part:
as §1, §2, §3, §4

For another experiment, the system named is HCC-2998. The experiment is described as follows: NCI-60 screen at 10 μM: HCC-2998. The note with it: Colon Cancer HCC-2998; 10 μM single dose; 48 hrs. As for the experimental part: as §1, §2, §3, §4
The subject of the next experiment is HCT-116. In words: NCI-60 screen at 10 μM: HCT-116. The following applies: Colon Cancer HCT-116; 10 μM single dose; 48 hrs. As for the experimental part:
as §1, §2, §3, §4

The subject of the next experiment is SW-620. In words: NCI-60 screen at 10 μM: SW-620. The note with it: Colon Cancer SW-620; 10 μM single dose; 48 hrs. As for the experimental part:
as §1, §2, §3, §4

Another experiment deals with SF-268. The experiment is described as follows: NCI-60 screen at 10 μM: SF-268. The following applies: CNS Cancer (Glioma) SF-268; 10 μM single dose; 48 hrs. As for the experimental part:
as §1, §2, §3, §4

In a further experiment the test system is SNB-75. In words: NCI-60 screen at 10 μM: SNB-75. The following applies: CNS Cancer (Glioma) SNB-75; 10 μM single dose; 48 hrs. As for the experimental part: as §1, §2, §3, §4
The test system of the next experiment is MALME-3M. In words: NCI-60 screen at 10 μM: MALME-3M. The note with it: Melanoma MALME-3M; 10 μM single dose; 48 hrs. The procedure:
as §1, §2, §3, §4

The test system of a further experiment is M14. In words: NCI-60 screen at 10 μM: M14. The note with it: Melanoma M14; 10 μM single dose; 48 hrs. The procedure: as §1, §2, §3, §4
Another experiment relates to SK-MEL-2. The experiment is described as follows: NCI-60 screen at 10 μM: SK-MEL-2. The note with it: Melanoma SK-MEL-2; 10 μM single dose; 48 hrs. As for the experimental part: as §1, §2, §3, §4
The next experiment relates to SK-MEL-28. In words: NCI-60 screen at 10 μM: SK-MEL-28. The note with it: Melanoma SK-MEL-28; 10 μM single dose; 48 hrs. The procedure: as §1, §2, §3, §4
The next experiment relates to SK-MEL-5. The experiment is described as follows: NCI-60 screen at 10 μM: SK-MEL-5. The following applies: Melanoma SK-MEL-5; 10 μM single dose; 48 hrs. The procedure:
as §1, §2, §3, §4

The test system of a further experiment is 786-0. The experiment is described as follows: NCI-60 screen at 10 μM: 786-0. The note with it: Renal Cancer 786-0; 10 μM single dose; 48 hrs. As for the experimental part:
as §1, §2, §3, §4

The next experiment relates to RXF 393. The experiment is described as follows: NCI-60 screen at 10 μM: RXF 393. The following applies: Renal Cancer RXF 393; 10 μM single dose; 48 hrs. As for the experimental part:
as §1, §2, §3, §4

In another experiment the test system is TK-10. In words: NCI-60 screen at 10 μM: TK-10. The note with it: Renal Cancer TK-10; 10 μM single dose; 48 hrs. The procedure:
as §1, §2, §3, §4

The subject of another experiment is UO-31. The experiment is described as follows: NCI-60 screen at 10 μM: UO-31. The note with it: Renal Cancer UO-31; 10 μM single dose; 48 hrs. The procedure:
as §1, §2, §3, §4

Another experiment deals with MCF7. In words: NCI-60 screen at 10 μM: MCF7. The following applies: Breast Cancer MCF7; 10 μM single dose; 48 hrs. The procedure: as §1, §2, §3, §4
For a further experiment, the system named is MDA-MB-231. The experiment is described as follows: NCI-60 screen at 10 μM: MDA-MB-231. The note with it: Breast Cancer MDA-MB-231; 10 μM single dose; 48 hrs. The procedure: as §1, §2, §3, §4
The next experiment has as its system BT-549. In words: NCI-60 screen at 10 μM: BT-549. The following applies: Breast Cancer BT-549; 10 μM single dose; 48 hrs. As for the experimental part:
as §1, §2, §3, §4

A further experiment deals with MDA-MB-468. In words: NCI-60 screen at 10 μM: MDA-MB-468. The following applies: Breast Cancer MDA-MB-468; 10 μM single dose; 48 hrs. As for the experimental part: as §1, §2, §3, §4

On to `Cn1c(CCNCc2ccc(/C=C/C(=O)NO)cc2)nc2cc(N(CCCl)CCCl)ccc21` [CY-102], for which the Growth % is recorded as 2.17% in the experiment on MOLT-4; 2.28% with RPMI-8226; 0.09% in the experiment on SR; −35.89% in the experiment on HOP-92; −6.76% in the experiment with NCI-H23; 2.61% in the experiment with NCI-H460. Also, the Growth % in the experiment with HCC-2998 is listed as −80.55%; with HCT-116 it was −1.84%; with SW-620, 2.33%; with SF-268, −31.46%; with SNB-75 it was −48.45%; with MALME-3M it was −64.17%. The Growth % was −76.75% in the experiment on M14; −21.36% in the experiment with SK-MEL-2; −21.36% with SK-MEL-28; −79.31% in the experiment with SK-MEL-5; −30.40% with 786-0; −35.55% in the experiment with RXF 393. Moreover, the Growth % in the experiment on TK-10 was −28.81%; with UO-31, −9.19%; with MCF7 it was −15.28%; in the experiment on MDA-MB-231, −35.33%; with BT-549 it was −33.26%; in the experiment on MDA-MB-468 it was −21.52%.

Turning to `Cn1c(CCCCCCC(=O)NO)nc2cc(N(CCCl)CCCl)ccc21` [NL-101], the Growth % came to 18.01% in the experiment with MOLT-4; 49.23% in the experiment on RPMI-8226; 29.62% in the experiment on SR; 22.07% with HOP-92; 30.14% in the experiment on NCI-H23; 25.56% in the experiment with NCI-H460. Also, the Growth % with HCC-2998 is given as 86.98%; in the experiment on HCT-116 it was 23.73%; in the experiment with SW-620, 30.40%; with SF-268 it was 10.27%; in the experiment with SNB-75, 19.79%; with MALME-3M, 28.59%. Besides, the Growth % in the experiment on M14 is 39.93%; in the experiment with SK-MEL-2, 37.31%; in the experiment with SK-MEL-28 it was 59.32%; with SK-MEL-5, −6.55%; with 786-0, 19.82%; with RXF 393 it was 5.95%. Moreover, the Growth % with TK-10 is given as 48.48%; in the experiment with UO-31 it was 63.69%; in the experiment with MCF7, 37.24%; in the experiment on MDA-MB-231, 72.24%; in the experiment with BT-549 it was 79.21%; with MDA-MB-468, −34.68%.
